Structures can show the parent of a compound that is named as a salt.
How the values were obtained:
[1] = target: human α2δ-1 subunit of Cav2.2 calcium channel (Homo sapiens, UniProt P54289); assay: Binding assay to human α2δ-1 subunit of Cav2.2 calcium channel ([3H]-Gabapentin); conditions: binding expressed as Ki; [3H]-Gabapentin 15 nM, human α2δ-1 enriched membranes
Description: Binding assay to human α2δ-1 subunit of Cav2.2 calcium channel.
Human α2δ-1 enriched membranes (2.5 µg) were incubated with 15 nM of radiolabeled [3H]-Gabapentin in assay buffer containing Hepes-KOH 10 mM, pH 7.4.
NSB (non specific binding) was measured by adding 10 µM pregabalin. The binding of the test compound was measured at either one concentration (% inhibition at 1 or 10 µM) or five different concentrations to determine affinity values (Ki). After 60 min incubation at 27 °C, binding reaction was terminated by filtering through Multiscreen GF/C (Millipore) presoaked in 0.5 % polyethyleneimine in Vacuum Manifold Station, followed by 3 washes with ice-cold filtration buffer containing 50 mM Tris-HCl, pH 7.4.
Filter plates were dried at 60 °C for 1 h and 30 µl of scintillation cocktail were added to each well before radioactivity reading.
Readings were performed in a Trilux 1450 Microbeta radioactive counter (Perkin Elmer).

[2] = target: T1, human µ-opioid receptor (Homo sapiens, UniProt P35372); assay: Binding assay to human µ-opioid receptor ([3H]-DAMGO, transfected CHO-K1 cell membranes); conditions: binding expressed as Ki, [3H]-DAMGO 1 nM
T1 construct: expressed in transfected cells; host or cells: CHO-K1
Description: Binding assay to human µ-opioid receptor
Transfected CHO-K1 cell membranes (20 µg) were incubated with [^3H]-DAMGO (1 nM) in assay buffer containing Tris-HCl 50 mM, MgCl2 5 mM at pH 7.4.
NBS (non-specific binding) was measured by adding 10 µM naloxone. The binding of the test compound was measured at either one concentration (% inhibition at 1 or 10 µM) or five different concentrations to determine affinity values (Ki). Plates were incubated at 27 °C for 60 min. After the incubation period, the reaction mixture was then transferred to MultiScreen HTS, FC plates (Millipore), filtered and plates were washed 3 times with ice-cold 10 mM Tris-HCl (pH 7.4).
Filters were dried and counted at approximately 40% efficiency in a MicroBeta scintillation counter (Perkin-Elmer) using EcoScint liquid scintillation cocktail.

Chain of human α2δ-1 subunit of Cav2.2 calcium channel (P54289 25-1103): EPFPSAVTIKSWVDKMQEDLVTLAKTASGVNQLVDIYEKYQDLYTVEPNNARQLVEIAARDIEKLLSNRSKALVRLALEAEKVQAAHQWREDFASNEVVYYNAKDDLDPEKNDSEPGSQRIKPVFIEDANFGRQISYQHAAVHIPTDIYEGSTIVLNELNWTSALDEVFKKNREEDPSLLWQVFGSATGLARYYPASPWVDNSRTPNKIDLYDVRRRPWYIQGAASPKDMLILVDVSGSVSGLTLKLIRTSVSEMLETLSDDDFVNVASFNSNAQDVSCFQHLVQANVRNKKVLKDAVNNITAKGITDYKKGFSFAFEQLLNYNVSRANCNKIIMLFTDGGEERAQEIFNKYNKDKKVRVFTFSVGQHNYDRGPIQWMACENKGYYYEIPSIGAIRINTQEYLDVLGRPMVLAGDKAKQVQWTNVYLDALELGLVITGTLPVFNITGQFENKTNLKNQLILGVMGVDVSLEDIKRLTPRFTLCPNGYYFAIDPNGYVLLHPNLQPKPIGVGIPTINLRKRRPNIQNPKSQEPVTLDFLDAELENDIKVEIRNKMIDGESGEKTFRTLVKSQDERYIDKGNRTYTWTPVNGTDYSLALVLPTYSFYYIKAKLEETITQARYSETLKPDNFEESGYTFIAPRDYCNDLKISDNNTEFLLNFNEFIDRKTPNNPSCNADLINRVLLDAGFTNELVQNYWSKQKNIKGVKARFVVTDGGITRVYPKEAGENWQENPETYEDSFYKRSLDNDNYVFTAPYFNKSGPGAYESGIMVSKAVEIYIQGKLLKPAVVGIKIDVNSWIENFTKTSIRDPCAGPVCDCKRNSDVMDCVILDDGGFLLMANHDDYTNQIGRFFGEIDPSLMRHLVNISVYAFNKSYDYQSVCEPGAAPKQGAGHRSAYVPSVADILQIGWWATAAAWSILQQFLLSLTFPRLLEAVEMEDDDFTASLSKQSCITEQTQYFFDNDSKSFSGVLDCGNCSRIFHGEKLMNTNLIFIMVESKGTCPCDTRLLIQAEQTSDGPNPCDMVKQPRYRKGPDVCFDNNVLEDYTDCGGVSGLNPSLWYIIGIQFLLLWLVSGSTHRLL
T1 sequence (P35372 whole entry): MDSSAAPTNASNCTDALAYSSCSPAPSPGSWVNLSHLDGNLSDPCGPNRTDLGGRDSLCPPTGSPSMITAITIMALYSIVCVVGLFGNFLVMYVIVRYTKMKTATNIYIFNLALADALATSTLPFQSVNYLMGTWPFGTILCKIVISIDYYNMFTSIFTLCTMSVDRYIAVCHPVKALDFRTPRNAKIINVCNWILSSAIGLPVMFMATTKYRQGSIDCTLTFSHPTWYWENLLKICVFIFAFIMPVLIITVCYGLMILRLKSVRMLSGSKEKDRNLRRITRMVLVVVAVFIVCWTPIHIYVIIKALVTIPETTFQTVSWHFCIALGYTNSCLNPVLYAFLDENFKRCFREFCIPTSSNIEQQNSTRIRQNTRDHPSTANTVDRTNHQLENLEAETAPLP

`CC[C@@H](c1ccccc1)[C@@H](CN)C(=O)N1CCC2(CC1)c1ccccc1CCN2C` [Example 1] gave a Ki [1] of less than 500 nM and a Ki [2] of less than 100 nM.

`CNC[C@@H](C(=O)N1CCC2(CC1)c1ccccc1CCN2C)[C@@H](C)c1ccccc1` [Example 2, (2S,3R)-1-(2-methyl-3,4-dihydro-2H-spiro[isoquinoline-1,4'-piperidin]-1'-yl)-2-((methylamino)methyl)-3-phenylbutan-1-one] showed a Ki [1] of less than 500 nM and a Ki [2] of 100 to 500 nM.

`CC[C@@H](c1cccc(Cl)c1)[C@@H](CNC)C(=O)N1CCC2(CC1)c1ccccc1CCN2C` [Example 3, (2S,3R)-3-(3-chlorophenyl)-1-(2-methyl-3,4-dihydro-2H-spiro[isoquinoline-1,4'-piperidin]-1'-yl)-2-((methylamino)methyl)pentan-1-one dihydrochloride] showed a Ki [1] of less than 500 nM and a Ki [2] of 100 to 500 nM.

For `CC[C@@H](c1cccc(Cl)c1)[C@@H](CN)C(=O)N1CCC2(CC1)c1ccccc1CCN2C` [Example 4, (2S,3R)-2-(aminomethyl)-3-(3-chlorophenyl)-1-(2-methyl-3,4-dihydro-2H-spiro[isoquinoline-1,4'-piperidin]-1'-yl)pentan-1-one], the Ki [1] was less than 500 nM and the Ki [2] was less than 100 nM.

Source: EP3858438A1, “3,4-DIHYDRO-2H-SPIRO[ISOQUINOLINE-1,4'-PIPERIDIN]AMIDE DERIVATIVES HAVING MULTIMODAL ACTIVITY AGAINST PAIN” (ESTEVE PHARMACEUTICALS, S.A., priority 2020, dated 2021)
